Reference: US11976083B2, “Inhibitors of peptidylarginine deiminases” (Gilead Sciences, Inc., priority 2020, dated 2024)
pIC50: −log10 of the molar value.

What follows are molecules tested against T1, human PAD4 (Homo sapiens, UniProt Q9UM07) (assay: In vitro PAD4 BAEE biochemical assay). Details: BAEE substrate 3 mM, 5 nM PAD4, 2 mM calcium chloride; geometric mean of multiple experiments.
T1 construct: human PAD4 (NM_012387), A2-P663, was PCR amplified; His-SUMO (N, cleaved yes); made in house; host or cells: E. coli BL21(DE3)
T1 sequence (Q9UM07 2-663): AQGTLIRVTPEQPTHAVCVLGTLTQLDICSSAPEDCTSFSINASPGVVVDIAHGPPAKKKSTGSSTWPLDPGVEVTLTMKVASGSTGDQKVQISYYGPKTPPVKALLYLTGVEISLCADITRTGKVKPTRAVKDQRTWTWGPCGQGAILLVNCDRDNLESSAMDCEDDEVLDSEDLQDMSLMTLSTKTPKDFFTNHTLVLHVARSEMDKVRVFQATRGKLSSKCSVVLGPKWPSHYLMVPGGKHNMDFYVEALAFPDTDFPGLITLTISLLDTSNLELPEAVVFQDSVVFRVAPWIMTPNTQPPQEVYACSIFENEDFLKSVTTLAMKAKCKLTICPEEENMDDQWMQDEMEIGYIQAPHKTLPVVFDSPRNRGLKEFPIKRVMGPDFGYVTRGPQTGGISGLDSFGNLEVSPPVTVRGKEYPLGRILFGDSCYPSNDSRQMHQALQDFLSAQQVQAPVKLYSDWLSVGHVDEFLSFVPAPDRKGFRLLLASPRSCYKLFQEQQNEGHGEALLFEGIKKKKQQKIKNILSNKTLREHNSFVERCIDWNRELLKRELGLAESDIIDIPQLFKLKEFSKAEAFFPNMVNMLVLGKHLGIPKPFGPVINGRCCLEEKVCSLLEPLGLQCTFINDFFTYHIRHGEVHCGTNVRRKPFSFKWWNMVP
Method in brief: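 Ammonia produced by BAEE deimination (3 mM substrate, 2 h, 25 °C) was read as fluorescent isoindole after o-phthalaldehyde/DTT derivatization, ex 405 nm/em 535 nm. Human PAD4 at 5 nM final, 2 mM calcium, pH 7.6 MOPS; compound preincubated 30 min. IC50s, normalized to BB-Cl-Amidine and DMSO controls, were geometric-mean averaged.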

| Compound | pIC50 |
| --- | --- |
| C[C@H]1NC(=O)[C@@H]2C[C@H]2CCCCCn2c(-c3nc4cc(C(=O)N[C@H]5CNCC[C@@H]5F)c(F)cc4n3[C@H]3C[C@@H]3C)cc3ccc1nc32 [Example 413, 6-fluoro-˜{N}-[(3˜{S},4˜{S})-4-fluoro-3-piperidyl]-1-[(1˜{S},2˜{S})-2-methylcyclopropyl]-2-[(2˜{R},5˜{R},7˜{R})-2-methyl-4-oxo-3,13,19-triazatetracyclo[11.5.2.0^{5,7}.0^{16,20}]icosa-1(19),14,16(20),17-tetraen-14-yl]benzimidazole-5-carboxamide] | 7.43 |
| COc1cc(C(=O)N2[C@H]3CC[C@@H]2[C@H](N)[C@H](OC)C3)cc2nc(-c3cc4ccc5nc4n3CCCCC[C@@H]3C[C@H]3C(=O)N[C@@H]5C)n(C)c12 [Example 584, (2~{R},5~{R},7~{R})-14-[5-[(1~{R},2~{S},3~ {R},5~{S})-2-amino-3-methoxy-8-azabicyclo[3.2.1]octane-8-carbonyl]-7-methoxy-1-methyl-benzimidazol-2-yl]-2-methyl-3,13,19-triazatetracyclo [11.5.2.0^{5,7}.0^{16,20}] icosa-1(19),14,16(20), 17-tetraen-4-one] | 7.29 |
| COc1cc(C(=O)N2CCC[C@@H](N)C2)cc2nc(-c3cc4ccc5nc4n3CCCCCCNC(=O)c3c-5ccnc3F)n(C)c12 [Example 56, 17-[5-[(3~{R})-3-aminopiperidine-1-carbonyl]-7-methoxy-1-methyl-benzimidazol-2-yl]-6-fluoro-5,9,16,22-tetrazatetracyclo[14.5.2.0^{2,7}.0^{19,23}] tricosa-1(22),2,4,6,17,19(23),20-heptaen-8-one] | 6.71 |
| COc1cc(C(=O)N2CCC[C@@H](N)C2)cc2nc(-c3cc4ccc5nc4n3C[C@H]3C[C@@H]3CCCC(C)C(=O)N[C@@H]5C)n(C)c12 (stereo partly drawn) [Example 166, (3~{S},5~{S},12~{R})-18-[5-[(3~{R})-3-aminopiperidine-1-carbonyl]-7-methoxy-1-methyl-benzimidazol-2-yl]-9,12-dimethyl-1,11,20-triazatetracyclo[11.5.2.0^{3,5}.0^{16,19}] icosa-13(20),14,16(19),17-tetraen-10-one] | 7.31 |
| CCn1c(-c2cc3ccc4nc3n2CCCCCCC(C)(C)C(=O)N[C@@H]4C)nc2cc(C(=O)N[C@H]3CNCC[C@@H]3F)c(F)cc21 [Example 423, 1-ethyl-6-fluoro-~{N}-[(3~{S},4~{S})-4-fluoro-3-piperidyl]-2-[(11~{R})-8,8,11-trimethyl-9-oxo-1,10,19-triazatricyclo[10.5.2.0^{15,18}]nonadeca-12(19),13,15(18),16-tetraen-17-yl]benzimidazole-5-carboxamide] | 7.19 |
| COc1cc(C(=O)N2CC[C@@H](OC)[C@@H](N)C2)cc2nc(-c3cc4ccc5nc4n3CCCCCCC(c3ccccn3)C(=O)N[C@@H]5C)n(C)c12 (stereo partly drawn) [Example 860, (11~{R})-17-[5-[(3~{S),4~{R})-3-amino-4-methoxy-piperidine-1-carbonyl]-7-methoxy-1-methyl-benzimidazol-2-yl]-11-methyl-8-(2-pyridyl)-1,10,19-triazatricyclo [10.5.2.0^{15,18}]nonadeca-12(19),13,15(18),16-tetraen-9-one] | 7.36 |
| COc1cc(C(=O)N2CCC[C@@H](N)C2)cc2nc(-c3cc4ccc5cc4n3CCCCCCC(C)(C)C(=O)Nc3ncccc3-5)n(C)c12 [Example 53, 18-[5-[(3~{R})-3-aminopiperidine-1-carbonyl]-7-methoxy-1-methyl-benzimidazol-2-yl]-10,10-dimethyl-6,8,17-triazatetracyclo[15.5.2.0^{2,7}.0^{20,24}] tetracosa-1(23),2,4,6,18,20(24),21-heptaen-9-one] | 6.55 |
| COc1cc(C(=O)N[C@H]2CNCC[C@@H]2F)cc2nc(-c3cc4ccc5nc4n3CCCCCc3cccc(F)c3C(=O)N[C@@H]5C)n(C)c12 [Example 345, 2-[(2~{R})-6-fluoro-2-methyl-4-oxo-3,16,22-triazatetracyclo[14.5.2.0^{5,10}.0^{19,23)]tricosa-1(22),5,7,9,17,19(23),20-heptaen-17-yl]-~{N}-[(3~{S},4~{S})-4-fluoro-3-piperidyl]-7-methoxy-1-methyl-benzimidazole-5-carboxamide] | 7.22 |
| COc1cc(C(=O)N2[C@H]3CC[C@@H]2[C@H](N)C3)cc2nc(-c3cc4ccc5nc4n3CCCCCCCOc3ncccc3-5)n(C)c12 [Example 85, [(1˜{R},2˜{R},4˜{S})-2-amino-7-azabicyclo[2.2.1]heptan-7-yl]-[7-methoxy-1-methyl-2-(8-oxa-6,16,22-triazatetracyclo[14.5.2.0^{2,7}.0^{19,23}]tricosa-1(22),2,4,6,17,19(23),20-heptaen-17-yl)benzimidazol-5-yl]methanone] | 6.39 |
| COc1cc(C(=O)N2CC[C@@H](OC)[C@@H](N)C2)cc2nc(-c3cc4ccc5nc4n3CCCCCC[C@](C)(C(F)(F)F)C(=O)N[C@@H]5C)n(C)c12 [Example 720, (8~{S},11~{R})-17-[5-[(3~ {S},4~{R})-3-amino-4-methoxy-piperidine-1-carbonyl]-7-methoxy-1-methyl-benzimidazol-2-yl]-8,11-dimethyl-8-(trifluoromethyl)-1,10,19-triazatricyclo[10.5.2.0^ {15,18}]nonadeca-12(19),13,15(18),16-tetraen-9-one] | 7.19 |
| C[C@H]1NC(=O)C2(CCCCCCn3c(-c4nc5cc(C(=O)N[C@H]6CNCC[C@@H]6F)c(F)cc5n4C)cc4ccc1nc43)CC(F)(F)C2 [Example 402, 2-[(11~{R})-1′,1′-difluoro-11-methyl-9-oxo-spiro[1,10,19-triazatricyclo[10.5.2.0^{15,18}]nonadeca-12(19),13,15(18),16-tetraene-8,3′-cyclobutane]-17-yl]-6-fluoro-~{N}-[(3~{S},4~{S})-4-fluoro-3-piperidyl]-1-methyl-benzimidazole-5-carboxamide] | 7.04 |

More lines, in order of rising pIC50, values ahead:

| pIC50 | Compound |
| --- | --- |
| 7.43 | C[C@H]1NC(=O)c2ccc(Cl)nc2CCCCCn2c(-c3nc4cc(C(=O)N5C[C@H](N)[C@@H]6CC[C@H]5C6)cc(F)c4n3[C@@H]3C[C@@H]3F)cc3ccc1nc32 [Example 452, (2~{R})-17-[(1~{R})-5-[(1~{S},4~{R},5~{R})-4-amino-2-azabicyclo[3.2.1]octane-2-carbonyl]-7-fluoro-1-[(2~{S})-2-fluorocyclopropyl]benzimidazol-2-yl]-8-chloro-2-methyl-3,9,16,22-tetrazatetracyclo[14.5.2.0^{5,10).0^{19,23}] tricosa-1(22),5(10),6,8,17,19(23),20-heptaen-4-one] |
| 7.43 | COc1cc(C(=O)N[C@H]2CNCC[C@@H]2F)cc2nc(-c3cc4ccc5nc4n3CCCCC[C@@H]3[C@@H](C(=O)N[C@@H]5C)C3(F)F)n(C)c12 [Example 369, 2-[(2~{R},5~{S},7~{R})-6,6-difluoro-2-methyl-4-oxo-3,13,19-triazatetracyclo[11.5.2.0^{5,7}.0^{16,20}]icosa-1(19),14,16(20),17-tetraen-14-yl]- ~{N}-[(3~{S},4~{S})-4-fluoro-3-piperidyl]-7-methoxy-1-methyl-benzimidazole-5-carboxamide] |
| 7.44 | COc1cc(C(=O)N2CC[C@H]3CCN[C@H]3C2)cc2nc(-c3cc4ccc5nc4n3CCCCC[C@@H]3C[C@H]3C(=O)N[C@@H]5C)n(C)c12 [Example 531, (2~{R},5~{R},7~{R})-14-[5-[(3~{a}-{R},7~ {a}~{R})-1,2,3,3~ {a},4,5,7,7~{a}-octahydropyrrolo[2,3-c]pyridine-6-carbonyl]-7-methoxy-1-methyl-benzimidazol-2-yl]-2-methyl-3,13,19-triazatetracyclo[11.5.2.0^ {5,7}.0^{16,20}]icosa-1(19),14,16(20),17-tetraen-4-one] |
| 7.54 | COc1cc(C(=O)N2[C@H]3CC[C@@H]2[C@H](N)C3)cc2nc(-c3cc4ccc5nc4n3C[C@@H]3C[C@H]3COCCC(=O)N[C@@H]5C)n(C)c12 [Example 218, (3~{R},5~{R},12~{R})-18-[5-[(1~{R},2~{R},4~{S})-2-amino-7-azabicyclo[2.2.1]heptane-7-carbonyl]-7-methoxy-1-methyl-benzimidazol-2-yl]-12-methyl-7-oxa-1,11,20-triazatetracyclo[11.5.2.0^{3,5}.0^{16,19}] icosa-13(20),14,16(19),17-tetraen-10-one] |
| 7.59 | C[C@H]1NC(=O)[C@@H]2C[C@H]2CCCCCn2c(-c3nc4cc(C(=O)N[C@H]5CNC[C@H]6C[C@H]65)c(F)cc4n3C3CC3)cc3ccc1nc32 [Example 575, ~{N}-[(1~{S),5~{R},6~{R})-3-azabicyclo[4.1.0]heptan-5-yl]-1-cyclopropyl-6-fluoro-2-[(2~{R},5~{R},7~{R})-2-methyl-4-oxo-3,13,19-triazatetracyclo[11.5.2.0^ {5,7}.0^{16,20}]icosa-1(19),14,16(20),17-tetraen-14-yl]benzimidazole-5-carboxamide] |
| 7.68 | C[C@H]1NC(=O)[C@@H]2C[C@@]2(F)CCCCCn2c(-c3nc4cc(C(=O)N5C[C@H](N)[C@@H]6CC[C@H]5C6)cc(F)c4n3CC(F)F)cc3ccc1nc32 [Example 920, (2~{R},5~{S},7~{S})-14-[5-[(1~{S),4~{R},5~{R})-4-amino-2-azabicyclo[3.2.1]octane-2-carbonyl]-1-(2,2-difluoroethyl)-7-fluoro-benzimidazol-2-yl]-7-fluoro-2-methyl-3,13,19-triazatetracyclo [11.5.2.0^{5,7}.0^{16,20}] icosa-1(19),14,16(20),17-tetraen-4-one] |
| 7.77 | C[C@H]1NC(=O)c2cnc(C(F)F)cc2CCCCCn2c(-c3nc4cc(C(=O)N5C[C@H](N)[C@@H]6CC[C@H]5C6)cc(F)c4n3C3CC3)cc3ccc1nc32 [Example 674, (2~{R})-17-[5-[(1~{S},4~ {R},5~{R})-4-amino-2-azabicyclo[3.2.1]octane-2-carbonyl]-1-cyclopropyl-7-fluoro-benzimidazol-2-yl]-8-(difluoromethyl)-2-methyl-3,7,16,22-tetrazatetracyclo[14.5.2.0^ {5,10).0^{19,23}]tricosa-1(22),5(10),6,8,17,19(23), 20-heptaen-4-one] |
